From PubChem BioAssay AID2060909 (Molecular Pharmacology Branch, DTP, NCI, 2025)

Tested on: 362531-283-R-J2-PDC complex spheroid viability
Test: Anticancer human tumor 362531-283-R-J2-PDC patient-derived colon adenocarcinoma cell line growth inhibition [RAS]
Conditions: for viability, T/C: stronger effect = lower value
Method in brief: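 Agents were tested in combination matrices in half-log decrements from a top concentration at or near clinical Cmax (10 microM if undetermined). Targets were multi-cell spheroids of tumour lines plus HUVEC and MSC stromal cells.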

[1] = curve of first compound, second compound 0.0316 µM
[2] = curve of first compound, second compound 0.1 µM
[3] = curve of first compound, second compound 0.316 µM
[4] = curve of first compound, second compound 1 µM
[5] = second compound 0.0316 µM, first compound 0.0316 µM
[6] = second compound 0.0316 µM, first compound 0.1 µM
[7] = second compound 0.0316 µM, first compound 0.316 µM
[8] = second compound 0.0316 µM, first compound 1 µM
[9] = second compound 0.1 µM, first compound 0.0316 µM
[10] = second compound 0.1 µM, first compound 0.1 µM
[11] = second compound 0.1 µM, first compound 0.316 µM
[12] = second compound 0.1 µM, first compound 1 µM
[13] = second compound 0.316 µM, first compound 0.0316 µM
[14] = second compound 0.316 µM, first compound 0.1 µM
[15] = second compound 0.316 µM, first compound 0.316 µM
[16] = second compound 0.316 µM, first compound 1 µM
[17] = second compound 1 µM, first compound 0.0316 µM
[18] = second compound 1 µM, first compound 0.1 µM
[19] = second compound 1 µM, first compound 0.316 µM
[20] = second compound 1 µM, first compound 1 µM
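Further: spheroids exposed to the agents for 7 days before readout.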
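Wherever viability, T/C is given: luminescence viability as percent of DMSO vehicle control wells.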

NC1c2ccccc2OC12CCN(c1cnc3c(N4CCCc5ncccc54)n[nH]c3n1)CC2 (stereo not drawn) + CCn1c(-c2cccnc2C(C)OC)c2c3cc(ccc31)N1CCOC(CC(NC(=O)C(C(C)C)N(C)C(=O)C3(F)CCN(C(=O)C#CC(C)(C)N(C)C)CC3)C(=O)N3CCCC(N3)C(=O)OCC(C)(C)C2)C1
IC50 (curve of first compound, second compound 0.000949 µM): 5.44 µM | IC50 (curve of first compound, second compound 0.003 µM): > 10 µM | IC50 (curve of first compound, second compound 0.00949 µM): 7.5 µM | IC50 (curve of first compound, second compound 0.03 µM): 6.81 µM | IC50 (curve of first compound, second compound 0.0949 µM): 5.87 µM | IC50 (curve of first compound, second compound 0.3 µM): > 10 µM | viability, T/C (second compound 0.000949 µM, first compound 0.0316 µM): 91.7% | viability, T/C (second compound 0.000949 µM, first compound 0.1 µM): 86.7% | viability, T/C (second compound 0.000949 µM, first compound 0.316 µM): 76.7% | viability, T/C (second compound 0.000949 µM, first compound 1 µM): 72.8% | viability, T/C (second compound 0.000949 µM, first compound 3.16 µM): 54.8% | viability, T/C (second compound 0.000949 µM, first compound 10 µM): 43% | viability, T/C (second compound 0.003 µM, first compound 0.0316 µM): 94.8% | viability, T/C (second compound 0.003 µM, first compound 0.1 µM): 87.5% | viability, T/C (second compound 0.003 µM, first compound 0.316 µM): 75% | viability, T/C (second compound 0.003 µM, first compound 1 µM): 66.8% | viability, T/C (second compound 0.003 µM, first compound 3.16 µM): 63.3% | viability, T/C (second compound 0.003 µM, first compound 10 µM): 52% | viability, T/C (second compound 0.00949 µM, first compound 0.0316 µM): 86.6% | viability, T/C (second compound 0.00949 µM, first compound 0.1 µM): 88.5% | viability, T/C (second compound 0.00949 µM, first compound 0.316 µM): 71.3% | viability, T/C (second compound 0.00949 µM, first compound 1 µM): 80.3% | viability, T/C (second compound 0.00949 µM, first compound 3.16 µM): 69.9% | viability, T/C (second compound 0.00949 µM, first compound 10 µM): 43.2% | viability, T/C (second compound 0.03 µM, first compound 0.0316 µM): 95.8% | viability, T/C (second compound 0.03 µM, first compound 0.1 µM): 74.2% | viability, T/C (second compound 0.03 µM, first compound 0.316 µM): 77.4% | viability, T/C (second compound 0.03 µM, first compound 1 µM): 76.4% | viability, T/C (second compound 0.03 µM, first compound 3.16 µM): 65.6% | viability, T/C (second compound 0.03 µM, first compound 10 µM): 41.3% | viability, T/C (second compound 0.0949 µM, first compound 0.0316 µM): 95.3% | viability, T/C (second compound 0.0949 µM, first compound 0.1 µM): 85.2% | viability, T/C (second compound 0.0949 µM, first compound 0.316 µM): 79% | viability, T/C (second compound 0.0949 µM, first compound 1 µM): 74.3% | viability, T/C (second compound 0.0949 µM, first compound 3.16 µM): 56.4% | viability, T/C (second compound 0.0949 µM, first compound 10 µM): 42.8% | viability, T/C (second compound 0.3 µM, first compound 0.0316 µM): 87.8% | viability, T/C (second compound 0.3 µM, first compound 0.1 µM): 75.6% | viability, T/C (second compound 0.3 µM, first compound 0.316 µM): 76.9% | viability, T/C (second compound 0.3 µM, first compound 1 µM): 67.4% | viability, T/C (second compound 0.3 µM, first compound 3.16 µM): 57.7% | viability, T/C (second compound 0.3 µM, first compound 10 µM): 53.1%

Cc1nc(N2CCC3(CC2)COC(C)C3N)c(CO)nc1Sc1ccnc(N)c1Cl (stereo not drawn) + C=CC(=O)N1CCN(c2nc(OCC3CCCN3C)nc3c(F)c(-c4nc(N)cc(C)c4C(F)(F)F)c(Cl)cc23)C(C)C1
IC50 (curve of first compound, second compound 0.00316 µM): > 10 µM | IC50 (curve of first compound, second compound 0.01 µM): > 10 µM | IC50 [1]: > 10 µM | IC50 [2]: > 10 µM | IC50 [3]: > 10 µM | IC50 [4]: > 10 µM | viability, T/C (second compound 0.00316 µM, first compound 0.0316 µM): 111% | viability, T/C (second compound 0.00316 µM, first compound 0.1 µM): 102% | viability, T/C (second compound 0.00316 µM, first compound 0.316 µM): 103% | viability, T/C (second compound 0.00316 µM, first compound 1 µM): 94.3% | viability, T/C (second compound 0.00316 µM, first compound 3.16 µM): 83.5% | viability, T/C (second compound 0.00316 µM, first compound 10 µM): 69.2% | viability, T/C (second compound 0.01 µM, first compound 0.0316 µM): 110% | viability, T/C (second compound 0.01 µM, first compound 0.1 µM): 101% | viability, T/C (second compound 0.01 µM, first compound 0.316 µM): 97.5% | viability, T/C (second compound 0.01 µM, first compound 1 µM): 86.3% | viability, T/C (second compound 0.01 µM, first compound 3.16 µM): 85.9% | viability, T/C (second compound 0.01 µM, first compound 10 µM): 77.5% | viability, T/C [5]: 111% | viability, T/C [6]: 111% | viability, T/C [7]: 99.3% | viability, T/C [8]: 96.8% | viability, T/C (second compound 0.0316 µM, first compound 3.16 µM): 81.5% | viability, T/C (second compound 0.0316 µM, first compound 10 µM): 73.8% | viability, T/C [9]: 117% | viability, T/C [10]: 104% | viability, T/C [11]: 98.4% | viability, T/C [12]: 92.4% | viability, T/C (second compound 0.1 µM, first compound 3.16 µM): 82.4% | viability, T/C (second compound 0.1 µM, first compound 10 µM): 79.8% | viability, T/C [13]: 111% | viability, T/C [14]: 101% | viability, T/C [15]: 118% | viability, T/C [16]: 89.2% | viability, T/C (second compound 0.316 µM, first compound 3.16 µM): 88.5% | viability, T/C (second compound 0.316 µM, first compound 10 µM): 79.3% | viability, T/C [17]: 108% | viability, T/C [18]: 111% | viability, T/C [19]: 101% | viability, T/C [20]: 86.1% | viability, T/C (second compound 1 µM, first compound 3.16 µM): 83.1% | viability, T/C (second compound 1 µM, first compound 10 µM): 68%

Nc1ccn(C2OC(CO)C(O)C2(F)F)c(=O)n1 (stereo not drawn)
viability, T/C (compound 0.00316 µM): 93.5% [middle of 4 runs] | viability, T/C (compound 0.01 µM): 95.2% [middle of 4 runs] | viability, T/C (compound 0.0316 µM): 84.4% [middle of 4 runs] | viability, T/C (compound 0.1 µM): 70.5% [middle of 4 runs] | viability, T/C (compound 0.316 µM): 21.9% [middle of 4 runs] | viability, T/C (compound 1 µM): 26.6% [middle of 4 runs] | IC50 (curve of compound): 167 nM [middle of 4 runs]

C=CC(=O)Nc1cc(Nc2nccc(-c3cn(C)c4ccccc34)n2)c(OC)cc1N(C)CCN(C)C + C#Cc1c(F)ccc2cc(O)cc(-c3ncc4c(N5CC6CCC(C5)N6)nc(OCC56CCCN5CC(F)C6)nc4c3F)c12
IC50 [1]: 0.526 µM | IC50 [2]: 0.472 µM | IC50 [3]: 0.158 µM | IC50 [4]: 0.11 µM | IC50 (curve of first compound, second compound 3.16 µM): 0.0489 µM | IC50 (curve of first compound, second compound 10 µM): 0.00545 µM | viability, T/C (second compound 0.0316 µM, first compound 0.00316 µM): 96.8% | viability, T/C (second compound 0.0316 µM, first compound 0.01 µM): 96.6% | viability, T/C [5]: 97.7% | viability, T/C [6]: 89.7% | viability, T/C [7]: 78.1% | viability, T/C [8]: 15.8% | viability, T/C (second compound 0.1 µM, first compound 0.00316 µM): 93% | viability, T/C (second compound 0.1 µM, first compound 0.01 µM): 96.6% | viability, T/C [9]: 91.6% | viability, T/C [10]: 84.8% | viability, T/C [11]: 71.3% | viability, T/C [12]: 12.4% | viability, T/C (second compound 0.316 µM, first compound 0.00316 µM): 95.9% | viability, T/C (second compound 0.316 µM, first compound 0.01 µM): 94.4% | viability, T/C [13]: 84.1% | viability, T/C [14]: 69.8% | viability, T/C [15]: 20.8% | viability, T/C [16]: 14.4% | viability, T/C (second compound 1 µM, first compound 0.00316 µM): 80.9% | viability, T/C (second compound 1 µM, first compound 0.01 µM): 78.3% | viability, T/C [17]: 73% | viability, T/C [18]: 53.7% | viability, T/C [19]: 19.9% | viability, T/C [20]: 14.4% | viability, T/C (second compound 3.16 µM, first compound 0.00316 µM): 63.5% | viability, T/C (second compound 3.16 µM, first compound 0.01 µM): 66.4% | viability, T/C (second compound 3.16 µM, first compound 0.0316 µM): 55.7% | viability, T/C (second compound 3.16 µM, first compound 0.1 µM): 38.7% | viability, T/C (second compound 3.16 µM, first compound 0.316 µM): 16.2% | viability, T/C (second compound 3.16 µM, first compound 1 µM): 13.8% | viability, T/C (second compound 10 µM, first compound 0.00316 µM): 57.3% | viability, T/C (second compound 10 µM, first compound 0.01 µM): 41.4% | viability, T/C (second compound 10 µM, first compound 0.0316 µM): 32.5% | viability, T/C (second compound 10 µM, first compound 0.1 µM): 22.5% | viability, T/C (second compound 10 µM, first compound 0.316 µM): 17.1% | viability, T/C (second compound 10 µM, first compound 1 µM): 13.4%
